Measurements taken from US10689344B2, “Biphenylamide derivative Hsp90 inhibitors” (University of Kansas, priority 2013, dated 2020).
One block for each molecule: values may come before it.

Key:
[1] = test system: SKBr3 (estrogen receptor negative, HER2 over-expressing breast cancer cells); assay: Anti-proliferation assay (MTS/PMS, 72 h), SKBr3; format: cell-based; conditions: Homo sapiens
Experimental: (§1) Cells were maintained in a 1:1 mixture of Advanced DMEM/F12 (Gibco) supplemented with non-essential amino acids, L-glutamine (2 mM), streptomycin (500 μg/mL), penicillin (100 units/mL), and 10% FBS. Cells were grown to confluence in a humidified atmosphere (37° C., 5% CO2), seeded (2000/well, 100 μL) in 96-well plates, and allowed to attach overnight. Compound at varying concentrations in DMSO (1% DMSO final concentration) was added, and cells were returned to the incubator for 72 h. At 72 h, the number of viable cells was determined using an MTS/PMS cell proliferation kit (Promega) per the manufacturer's instructions. Cells incubated in 1% DMSO were used at 100% proliferation, and values were adjusted accordingly. IC50 values were calculated from separate experiments performed in triplicate using GraphPad Prism.
(§2) Anti-proliferative studies with the compounds described herein were performed against the SKBr3 (estrogen receptor negative, HER2 over-expressing breast cancer cells) and MCF-7 (estrogen receptor positive breast cancer cells) breast cancer cell lines. […] In some embodiments, in contrast to the novobiocin derivatives, which usually manifest better anti-proliferative activities against the SKBr3 cell line, the biphenyl derivatives described herein were more efficacious against the MCF-7 cell line. In general, all substitutions on the phenyl ring were determined to be beneficial, consistent with the existence of a hydrophobic pocket in this region of the Hsp90 C-terminal binding site.

[2] = test system: MCF-7 (estrogen receptor positive breast cancer cells); assay: Anti-proliferation assay (MTS/PMS, 72 h), MCF-7; format: cell-based; conditions: Homo sapiens
Experimental: as §1, §2

[3] = SK-BR-3, Table 2, para-meta biphenyl core with substituted benzylamide
[4] = MCF7, Table 2, para-meta biphenyl core with substituted benzylamide
[5] = SK-BR-3, Table 4, para-para heteroatom substituted biphenyl core
[6] = MCF7, Table 4, para-para heteroatom substituted biphenyl core
[7] = SK-BR-3, Table 3, substituted para-para biphenyl core
[8] = MCF7, Table 3, substituted para-para biphenyl core
[9] = SK-BR-3, Table 6, para-para biphenyl core with substituted benzylamide
[10] = MCF7, Table 6, para-para biphenyl core with substituted benzylamide
[11] = SK-BR-3, Table 1, ortho, meta and para biphenyl cores
[12] = MCF7, Table 1, ortho, meta and para biphenyl cores
[13] = SK-BR-3, Table 8, para-para biphenyl core with substituted biphenylamide group
[14] = MCF7, Table 8, para-para biphenyl core with substituted biphenylamide group
[15] = SK-BR-3, Table 7, para-para biphenyl core with modified ether groups

Structure (SMILES): CN1CCC(Oc2ccc(-c3cccc(NC(=O)c4ccc(Cl)cc4Cl)c3)cc2)CC1 [Compound 6n, 2,4-Dichloro-N-(4′-((1-methylpiperidin-4-yl)oxy)-[1,1′-biphenyl]-3-yl)benzamide]
IC50 [1, 3]: 5910 ± 150 nM
IC50 [2, 4]: 3930 ± 470 nM

Structure (SMILES): COc1cccc(-c2cc(C(=O)Nc3ccc(-c4ccc(OC5CCN(C)CC5)c(OC)c4)cc3)ccc2OC)c1 [Compound 29e, 3′,6-dimethoxy-N-(3′-methoxy-4′-((1-methylpiperidin-4-yl)oxy)-[1,1′-biphenyl]-4-yl)-[1,1′-biphenyl]-3-carboxamide]
IC50 [1, 7]: 680 ± 130 nM
IC50 [2, 8]: 1320 ± 80 nM

Structure (SMILES): CN1CCC(Oc2ccc(-c3ccc(NC(=O)c4ccccc4)cc3)cc2)CC1 [Compound 41a, N-(4′-((1-methylpiperidin-4-yl)oxy)-[1,1′-biphenyl]-4-yl)benzamide]
IC50 [1, 9]: 4130 ± 220 nM
IC50 [2, 10]: 3950 ± 130 nM

Structure (SMILES): Cc1cccc(C(=O)Nc2cccc(-c3ccc(OC4CCN(C)CC4)cc3)c2)c1 [Compound 6d, 3-methyl-N-(4′-((1-methylpiperidin-4-yl)oxy)-[1,1′-biphenyl]-3-yl)benzamide]
IC50 [1, 3]: 11400 ± 1370 nM
IC50 [2, 4]: 7730 ± 1900 nM

Structure (SMILES): CN1CCC(Oc2ccc(-c3cccc(NC(=O)c4cccc5ccccc45)c3)cc2)CC1 [Compound 6p, N-(4′-((1-methylpiperidin-4-yl)oxy)-[1,1′-biphenyl]-3-yl)-1-naphthamide]
IC50 [1, 3]: 1640 ± 130 nM
IC50 [2, 4]: 1100 ± 170 nM

Structure (SMILES): CN1CCC(Oc2ccc(-c3cccc(NC(=O)c4ccc(C(C)(C)C)cc4)c3)cc2)CC1 [Compound 6e, 4-(tert-butyl)-N-(4′-((1-methylpiperidin-4-yl)oxy)-[1,1′-biphenyl]-3-yl)benzamide]
IC50 [1, 11]: 1510 ± 310 nM
IC50 [1, 3]: 1510 ± 310 nM
IC50 [2, 12]: 3450 ± 20 nM
IC50 [2, 4]: 3450 ± 20 nM

Structure (SMILES): COc1cccc(-c2cc(C(=O)Nc3ccc(-c4ccc(OCCC5CCCCN5)cc4)cc3)ccc2OC)c1 (stereo not drawn) [Compound 56a, 3′,6-dimethoxy-N-(4′-(2-(piperidin-2-yl)ethoxy)-[1,1′-biphenyl]-4-yl)-[1,1′-biphenyl]-3-carboxamide]
IC50 [1, 15]: 850 ± 200 nM
IC50 ([2]; MCF7, Table 7, para-para biphenyl core with modified ether groups): 950 nM

Structure (SMILES): COc1cccc(-c2cc(C(=O)Nc3ccc(-c4ccc(OC5CCN(C)CC5)c([N+](=O)[O-])c4)cc3)ccc2OC)c1 [Compound 34a, 3′,6-dimethoxy-N-(4′-((1-methylpiperidin-4-yl)oxy)-3′-nitro-[1,1′-biphenyl]-4-yl)-[1,1′-biphenyl]-3-carboxamide]
IC50 [1, 7]: 1950 nM
IC50 [2, 8]: 1250 ± 280 nM

Structure (SMILES): COc1cccc(-c2cc(C(=O)Nc3ccc(-c4ccc(OC5CCN(C)CC5)c(C#N)c4)cc3)ccc2OC)c1 [Compound 29m, N-(3′-cyano-4′-((1-methylpiperidin-4-yl)oxy)-[1,1′-biphenyl]-4-yl)-3′,6-dimethoxy-[1,1′-biphenyl]-3-carboxamide]
IC50 [1, 7]: 2770 ± 1160 nM
IC50 [2, 8]: 3700 ± 610 nM

Structure (SMILES): COc1cccc(-c2cc(C(=O)Nc3ccc(-c4ccc(OC5CCN(C)CC5)cc4)c(NC(C)=O)c3)ccc2OC)c1 [Compound 39c, N-(2-acetamido-4′-((1-methylpiperidin-4-yl)oxy)-[1,1′-biphenyl]-4-yl)-3′,6-dimethoxy-[1,1′-biphenyl]-3-carboxamide]
IC50 [1, 7]: 2520 ± 260 nM
IC50 [2, 8]: 4660 ± 490 nM

Structure (SMILES): COc1ccc(C(=O)Nc2cccc(-c3cccc(OC4CCN(C)CC4)c3)c2)cc1 [Compound 61h, 4-methoxy-N-(3′-((1-methylpiperidin-4-yl)oxy)-[1,1′-biphenyl]-3-yl)benzamide]
IC50 [1, 11]: 13200 ± 1970 nM
IC50 [2, 12]: 8200 nM

Structure (SMILES): CN1CCC(Oc2ccc(Nc3ccc(NC(=O)c4ccc5ccccc5c4)cc3)cc2)CC1
IC50 ([1]; SK-BR-3, Table 11, heteroatom linked biphenyl core): 4600 ± 250 nM
IC50 ([2]; MCF7, Table 11, heteroatom linked biphenyl core): 2150 ± 10 nM

Structure (SMILES): COc1cccc(-c2cc(C(=O)Nc3ccc(-c4ccc(OCCC5CCCN5C)cc4)cc3)ccc2OC)c1 (stereo not drawn) [Compound 56d, 3′,6-dimethoxy-N-(4′-(2-(1-methylpyrrolidin-2-yl)ethoxy)-[1,1′-biphenyl]-4-yl)-[1,1′-biphenyl]-3-carboxamide]
IC50 [1, 15]: 1750 ± 240 nM

Structure (SMILES): COc1ccc(C(=O)Nc2cccc(-c3ccc(OC4CCN(C)CC4)cc3)c2)cc1 [Compound 6f, 4-methoxy-N-(4′-((1-methylpiperidin-4-yl)oxy)-[1,1′-biphenyl]-3-yl)benzamide]
IC50 [1, 11]: 10100 ± 930 nM
IC50 [1, 3]: 10100 ± 930 nM
IC50 [2, 12]: 5520 ± 10 nM
IC50 [2, 4]: 5520 ± 10 nM

Structure (SMILES): Cc1ccc(C(=O)Nc2ccc(-c3ccc(OC4CCN(C)CC4)cc3)cc2)cc1I [Compound 41m, 3-iodo-4-methyl-N-(4′-((1-methylpiperidin-4-yl)oxy)-[1,1′-biphenyl]-4-yl)benzamide]
IC50 [1, 9]: 930 ± 200 nM
IC50 [2, 10]: 1170 ± 200 nM

Other lines, results leading:

IC50 [1, 5]: 1210 ± 130 nM
IC50 [2, 6]: 1020 ± 10 nM
Structure (SMILES): COc1cccc(-c2cc(C(=O)Nc3ccc(-c4ccc(OC5CCN(C)CC5)cc4)nc3)ccc2OC)c1 [Compound 19c, 3′,6-dimethoxy-N-(6-(4-((1-methylpiperidin-4-yl)oxy)phenyl)pyridin-3-yl)-[1,1′-biphenyl]-3-carboxamide]

IC50 [1, 5]: 1670 ± 90 nM
IC50 [2, 6]: 1560 ± 190 nM
Structure (SMILES): COc1cccc(-c2cc(C(=O)Nc3ccc(-c4ccc(OC5CCN(C)CC5)nc4)cc3)ccc2OC)c1 [Compound 19a, 3′,6-dimethoxy-N-(4-(6-((1-methylpiperidin-4-yl)oxy)pyridin-3-yl)phenyl)-[1,1′-biphenyl]-3-carboxamide]

IC50 [1, 13]: 270 ± 50 nM
IC50 [2, 14]: 620 ± 70 nM
Structure (SMILES): COc1ccc(C(=O)Nc2ccc(-c3ccc(OC4CCN(C)CC4)cc3)cc2)cc1-c1cccc(OC(C)=O)c1 [Compound 49d, 2′-methoxy-5′-((4′-((1-methylpiperidin-4-yl)oxy)-[1,1′-biphenyl]-4-yl)carbamoyl)-[1,1′-biphenyl]-3-yl acetate]

IC50 [1, 13]: 3370 ± 740 nM
IC50 [2, 14]: 1430 ± 280 nM
Structure (SMILES): COc1ccc(C(=O)Nc2ccc(-c3ccc(OC4CCN(C)CC4)cc3)cc2)cc1-c1cccc(NC(C)=O)c1 [Compound 50d, 3′-acetamido-6-methoxy-N-(4′-((1-methylpiperidin-4-yl)oxy)-[1,1′-biphenyl]-4-yl)-[1,1′-biphenyl]-3-carboxamide]

IC50 ([1]; SK-BR-3, Table 10, longer alkyl chain substituted biphenyl core): 1030 ± 40 nM
IC50 ([2]; MCF7, Table 10, longer alkyl chain substituted biphenyl core): 1660 ± 120 nM
Structure (SMILES): CCCOc1ccc(C(=O)Nc2ccc(-c3ccc(OC4CCN(C)CC4)cc3)cc2)cc1-c1cccc(OC)c1

IC50 [1, 7]: 2130 ± 60 nM
IC50 [2, 8]: 1760 ± 370 nM
Structure (SMILES): COc1cccc(-c2cc(C(=O)Nc3ccc(-c4ccc(OC5CCN(C)CC5)cc4N)cc3)ccc2OC)c1 [Compound 38b, N-(2′-amino-4′-((1-methylpiperidin-4-yl)oxy)-[1,1′-biphenyl]-4-yl)-3′,6-dimethoxy-[1,1′-biphenyl]-3-carboxamide]

IC50 [1, 13]: 1560 ± 350 nM
IC50 [2, 14]: 1080 ± 340 nM
Structure (SMILES): COc1ccc(C(=O)Nc2ccc(-c3ccc(OC4CCN(C)CC4)cc3)cc2)cc1-c1cccc(O)c1 [Compound 50a, 3′-hydroxy-6-methoxy-N-(4′-((1-methylpiperidin-4-yl)oxy)-[1,1′-biphenyl]-4-yl)-[1,1′-biphenyl]-3-carboxamide]

IC50 [1, 9]: 730 ± 70 nM
IC50 [1, 13]: 730 ± 70 nM
IC50 [2, 10]: 1150 ± 180 nM
IC50 [2, 14]: 1150 ± 180 nM
Structure (SMILES): CN1CCC(Oc2ccc(-c3ccc(NC(=O)c4cccc(-c5ccccc5)c4)cc3)cc2)CC1 [Compound 41r, N-(4′-((1-methylpiperidin-4-yl)oxy)-[1,1′-biphenyl]-4-yl)-[1,1′-biphenyl]-3-carboxamide]

IC50 [1, 7]: 3920 ± 210 nM
IC50 [2, 8]: 1220 ± 40 nM
Structure (SMILES): COc1cccc(-c2cc(C(=O)Nc3ccc(-c4ccc(OC5CCN(C)CC5)cc4)cc3OC)ccc2OC)c1 [Compound 29h, 3′,6-dimethoxy-N-(3-methoxy-4′-((1-methylpiperidin-4-yl)oxy)-[1,1′-biphenyl]-4-yl)-[1,1′-biphenyl]-3-carboxamide]

IC50 [1, 11]: 490 ± 10 nM
IC50 [1, 9]: 490 ± 10 nM
IC50 [2, 12]: 650 ± 40 nM
IC50 [2, 10]: 650 ± 40 nM
Structure (SMILES): COc1ccc(C(=O)Nc2ccc(-c3ccc(OC4CCN(C)CC4)cc3)cc2)cc1 [Compound 41f, 4-methoxy-N-(4′-((1-methylpiperidin-4-yl)oxy)-[1,1′-biphenyl]-4-yl)benzamide]

IC50 [1, 7]: 3900 ± 180 nM
IC50 [2, 8]: 2070 ± 230 nM
Structure (SMILES): COc1cccc(-c2cc(C(=O)Nc3ccc(-c4ccc(OC5CCN(C)CC5)cc4)c(N)c3)ccc2OC)c1 [Compound 38c, N-(2-amino-4′-((1-methylpiperidin-4-yl)oxy)-[1,1′-biphenyl]-4-yl)-3′,6-dimethoxy-[1,1′-biphenyl]-3-carboxamide]

IC50 [1, 7]: 3680 nM
IC50 [2, 8]: 3120 nM
Structure (SMILES): COc1cccc(-c2cc(C(=O)Nc3ccc(-c4ccc(OC5CCN(C)CC5)cc4Cl)cc3)ccc2OC)c1 [Compound 29j, N-(2′-chloro-4′-((1-methylpiperidin-4-yl)oxy)-[1,1′-biphenyl]-4-yl)-3′,6-dimethoxy-[1,1′-biphenyl]-3-carboxamide]

IC50 [1, 13]: 2780 ± 350 nM
IC50 [2, 14]: 2710 ± 450 nM
Structure (SMILES): COc1cccc(-c2cc(C(=O)Nc3ccc(-c4ccc(OC5CCN(C)CC5)cc4)cc3)ccc2O)c1 [Compound 49j]
